Experimental data published in patent US20060247156A1, “Use of neuropeptides for ligament, cartilage, and bone healing” (priority 2004, published 2006).
“Also recorded” adds a separate entry of the source.

Assays:
[1] = tested on: ruptured MCL of a FNT rat; assay: Local neuropeptide delivery to ruptured MCL of femoral nerve transected (FNT) rats: mechanical testing, histomorphology; format: in vivo; conditions: for failure force / ultimate stress / mechanical strength of healing MCL (in words): two weeks of healing; for mechanical strength of healing MCL (in words): local delivery of SP or CGRP
Source text: Surgical Procedure: Thirteen female Wistar rats (278 g to 315 g) were divided into two groups: femoral nerve transection (FNT) or sham control. All rats were anesthetized with isofluorane (isofluorane 0.5-3%). […] Skin covering the anterior inguinal region was shaved and prepared for surgery. A skin incision approximately 15 mm long was made and the fascia distal to the inguinal was incised. The femoral artery, vein, and nerve were exposed and the femoral nerve was isolated and transected (with removal of a 5 mm segment of the nerve) using 3-0 dexon suture. The fascia and skin were closed in two layers with 3-0 continuous dexon suture. Immediately following FNT, rats from each group (n=4 FNT; n=3 controls) underwent a complete surgical rupture of the MCL to one knee. The contra-lateral knee underwent sham surgery. Two weeks post-knee surgery, rats were sacrificed using an overdose of pentobarbitone (150 mg/kg).
Local delivery of NPs and NP inhibitors is important to identify the specific roles of individual NPs on healing tissues. […] Briefly, NP infused mini-osmotic pumps were implanted subcutaneously into the back of rats. A small catheter running from the pump to an intramuscular space above the MCL was secured to the rat.
To test whether sensory NPs improve healing in femoral nerve transection (FNT) ruptured MCLs, three female Wistar rats (199 g to 203 g) were given SP locally to the MCL. Substance P (103 pg/μl) was infused into a miniosmotic pump and was delivered to a ruptured MCL of a FNT rat (see surgical procedure in Example 1 above). […] The results are presented graphically in FIG. 5
Animal Model and Surgery: Thirty-seven female Wistar rats (199-298 g) were divided into five groups. […] Rats that were designated to receive NPY, VIP, or a combination of NPY and VIP underwent bilateral surgical sympathectomy. Following surgical nerve transection, each rat also underwent bilateral MCL rupture. Neuropeptides were then delivered ruptured MCLs unilaterally. Neuropeptide infused mini-osmotic pumps (Alzet Corp.) were implanted subcutaneously into the back of each rat. A small catheter running from the pump was run to an intramuscular space above the MCL and was secured. To ensure that neuropeptides are delivered directly to the MCL, rhodamine labeled SP was delivered via a catheter to the MCL (n=2 rats).
To test whether autonomic NPs improve healing in SS ruptured MCLs, seven rats were given VIP, seven rats were given NPY, and seven rats were given a combination of VIP and NPY.
Mechanical Testing: Mechanical testing was performed as described in the preceding examples. Briefly, animal hind limbs from all groups (n=4 for all groups) were disarticulated at the hip joint and stored at −80° C. until testing. On the day of testing, MCLs including intact femoral and tibial bone sections were excised for ex vivo testing. Ligament thickness and width was measured optically, and MCL area was estimated with elliptical geometry. For strain measurements, optical markers were placed onto the ligament tissue near the insertion sites. A small preload of 0.1N was applied to the ligaments in order to obtain a uniform starting point. The ligaments were then preconditioned to 1% strain for 10 cycles. After preconditioning, ligaments were pulled to failure at a rate of ˜10% per second. Tissue displacement was obtained using video dimensional analysis using equations (1) and (2) supra. The mechanical properties that were examined in this study were maximum force, ultimate stress, strain at failure, elastic modulus, and area.

[2] = tested on: ruptured MCL of a surgical sympathectomy (SS) rat; assay: Local neuropeptide delivery to ruptured MCL of surgical sympathectomy (SS) rats: mechanical testing, histomorphology; format: in vivo; conditions: for failure force / ultimate stress / mechanical strength of healing MCL (in words): two weeks of healing; for mechanical strength of healing MCL (in words): local delivery
Source text: Surgical Procedure: Thirteen female Wistar rats (306 g to 339 g) were divided into two groups: surgical sympathectomy (SS) or sham control. All rats were anesthetized with isofluorane as described in Example 1. A transperitoneal approach was used. The lower abdomen was shaved and prepared for surgery. A skin incision approximately 25 mm long was made. Fascia and abdominal muscle were incised. Abdominal organs were displaced. With the aid of a dissecting microscope, fascia surrounding the deep muscle tissue was separated (with minimal disruption to the muscle tissue) to expose the post-ganglionic sympathetic nerves. The L1-4 nerves were isolated and transected (with removal of a 5 mm segment of the nerves) in the surgical sympathectomy group only. In both groups, the deep muscle tissue was returned to its initial position and abdominal organs were replaced. Abdominal muscles and skin were closed in two layers with a 3-0 or 4-0 continuous dexon suture. Rats from each group (n=4 SS; n=3 controls) then underwent a complete surgical rupture of the MCL to one knee. The contra-lateral knee underwent sham surgery. […] Two weeks post-surgery, rats were sacrificed using an overdose of pentobarbitone (150 mg/kg).
Local delivery of NPs and NP inhibitors is important to identify the specific roles of individual NPs on healing tissues. An animal model for the local delivery of NPs has been developed and is presented in this Example. Briefly, NP infused mini-osmotic pumps were implanted subcutaneously into the back of rats. A small catheter running from the pump to an intramuscular space above the MCL was secured to the rat.
To test whether autonomic NPs improve healing in SS-ruptured MCLs, three female Wistar rats (193 g to 204 g) were given VIP locally to the MCL. Vasoactive intestinal peptide (75 pg/μl) was infused into a mini-osmotic pump and was delivered to a ruptured MCL of a surgical sympathectomy (SS) rat (see surgical procedure above). Within minutes of surgical intervention, all rats recovered and had normal movement and behavior (grooming, feeding, etc.). […] The results are presented graphically in FIG. 6.
Animal Model and Surgery: Thirty-seven female Wistar rats (199-298 g) were divided into five groups. […] Rats that were designated to receive SP or CGRP underwent bilateral femoral nerve transection (see previous examples). Rats that were designated to receive NPY, VIP, or a combination of NPY and VIP underwent bilateral surgical sympathectomy. Following surgical nerve transection, each rat also underwent bilateral MCL rupture. Neuropeptides were then delivered ruptured MCLs unilaterally. Neuropeptide infused mini-osmotic pumps (Alzet Corp.) were implanted subcutaneously into the back of each rat. A small catheter running from the pump was run to an intramuscular space above the MCL and was secured. To ensure that neuropeptides are delivered directly to the MCL, rhodamine labeled SP was delivered via a catheter to the MCL (n=2 rats).
Within minutes of surgical intervention, all rats recovered and had normal movement and behavior (grooming, feeding, etc.). To test whether autonomic NPs improve healing in SS ruptured MCLs, seven rats were given VIP, seven rats were given NPY, and seven rats were given a combination of VIP and NPY. […]
Mechanical Testing: Mechanical testing was performed as described in the preceding examples. Briefly, animal hind limbs from all groups (n=4 for all groups) were disarticulated at the hip joint and stored at −80° C. until testing. On the day of testing, MCLs including intact femoral and tibial bone sections were excised for ex vivo testing. Ligament thickness and width was measured optically, and MCL area was estimated with elliptical geometry. For strain measurements, optical markers were placed onto the ligament tissue near the insertion sites. […]

[3] = Example 3: SP 103 pg/μl via mini-osmotic pump to ruptured MCL of FNT rat
[4] = Example 6: SP 75 pg/100 μl via mini-osmotic pump, FNT rats, bilateral MCL rupture
[5] = Example 3: VIP 75 pg/μl via mini-osmotic pump to ruptured MCL of SS rat
[6] = Example 6: SS rats, bilateral MCL rupture, mini-osmotic pump (NPY 65 pg/100 μl; VIP 100 pg/100 μl; or both)

Substance	failure force [1, 3]	ultimate stress [1, 3]	failure force [1, 4]	ultimate stress [1, 4]	histomorphology (H&E) of healing MCL ([1]; FNT rats, SP 75 pg/100 μl or CGRP 10 pg/100, two weeks)	mechanical strength of healing MCL (in words) ([1]; FNT rats)	mechanical strength of healing MCL (in words) ([1]; FNT rats, listed as Substance P)	failure force [2, 5]	ultimate stress [2, 5]	failure force [2, 6]	ultimate stress [2, 6]	histomorphology (H&E) of healing MCL ([2]; SS rats, VIP or NPY, two weeks)	mechanical strength of healing MCL (in words) ([2]; SS rats)	mechanical strength of healing MCL (in words) ([2]; SS rats, listed as Vasoactive intestinal peptide)
Substance P [SP]	74.3 N	72.33 MPa	74.3±7.9 N	72.33±22.1 MPa	cells were more aligned	greater than the strength of uninjured MCLs; also recorded: greater than that of normally innervated, intact MCLs	completely reversed the functional deficits							
vasoactive intestinal peptide [VIP]								44.23 N	29.63 MPa	44.2±3.1 N	29.6±10.0 MPa	more aligned	greater than the strength of uninjured MCLs; also recorded: completely reversed the functional deficits	greater strength than intact, normally innervated MCLs
